Measurements: patent US20080287541A1, “Kit for Treatment of Cancer” (Redoxia Israel Ltd., priority 2004, published 2008)
Where “and” joins values, the source holds several entries; their conditions need not be identical. Identical values can stand only once.

Tests used:
various cell lines = details: BSO by itself; Dai et al. (1999); cited from earlier work
neuroblastoma cells = details: Nicole et al. (1998); cited from earlier work
[1] = tested on: MX-1 mammary carcinoma cells; test: 3H-Thymidine incorporation (proliferation) assay; assay type: cell-based, human; details: positive control, 10^−5 M doxorubicin; negative control = 100%
Experimental: Test compounds: Tested substances were dissolved in the appropriate medium as follows: carmustine (Sigma) was dissolved in ethanol, disulfiram (DSF) (Sigma) and curcumin (Fluka) were dissolved in dimethyl sulfoxide (DMSO), and DL-buthionine-sulfoximine (BSO) (Fluka) was dissolved in growth medium.
Compounds were added in a 1:10 serial dilution to the wells to obtain range of 10^−3 M to 10^−8 M final concentrations.
Controls: Positive control—10^−5M Doxorubicin. Negative control—Media containing the compound's solvent.
Cell lines: MX-1 mammary carcinoma cells were grown in RPMI-1640 medium, supplemented with 10% FBS, 2 mM L-glutamine, 1% penicillin/streptomycin and 1% non-essential amino acids.
MX-1 culturing and sub-culturing: MX-1 cells were grown in 75 cm^2 culture flasks. The culture medium was changed every other day and the day before the experiment. […]
Thymidine incorporation (proliferation) assay and cells harvesting: 24 hours after administering the compounds, to each well in the culture plates, ^3H-thymidine (NET-027 Thymidine [methyl-^3H] from NEN, 6.7 Ci/mmol) was added to final concentration of 0.4 μCi/well. […] Radioactivity was determined after adding 180 μl scintillation liquid (Microscint 20™, Packard).
Data calculation: The data represent the mean amount of thymidine counted per well (CPM). Average and standard deviation (SD) were calculated for each plate (12 wells). […]

| Structure (SMILES) | decrease in [GSH] in the cell (various cell lines) | decrease of GSH content (neuroblastoma cells) | Cell proliferation rate [1] |
| --- | --- | --- | --- |
| CCCCS(=N)(=O)CCC(N)C(=O)O (racemic) [BSO, buthionine sulfoximine] | 70% | 98% | – |
| COc1cccc2c1C(=O)c1c(O)c3c(c(O)c1C2=O)C[C@@](O)(C(=O)CO)C[C@@H]3O[C@H]1C[C@H](N)[C@H](O)[C@H](C)O1 [doxorubicin, Doxorubicin] | – | – | 4-11% and 4% |
